The results in this text go back to patent publication US10076519B2 (CYTOKINETICS, INC., priority 2010, dated 2018).

The test system of the first test is rabbit skeletal myofibrils (fast skeletal myofibrils). As to the kind of experiment: Activation of fast skeletal myofibrils (PUMA assay, PK/LDH-coupled ATPase at pCa25). The test is classed as biochemical. Conditions: AC1.4 determined according to the procedure of Example 39; reported as class symbols. A digest of the protocol:
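Detergent-washed rabbit psoas myofibrils (~90% fast fibres, calcium-regulated) assayed at calcium giving 25% of maximal ATPase rate (pCa25). ADP turnover coupled via pyruvate kinase/lactate dehydrogenase to NADH oxidation, read at 340 nm. Buffer 12 mM PIPES, 2 mM MgCl2, 1 mM DTT, pH 6.8; AC1.4 values derived.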
As to `CC(C)(CNc1ccc(-c2cccc(CN)c2)nn1)c1ccc(F)cc1` [{6-[3-(aminomethyl)phenyl]pyridazin-3-yl}[2-(4-fluorophenyl)-2-methylpropyl]amine], the “Mean AC1.4” value is on record as “B (B=1-10 uM)”.
In the case of `CCNc1n[nH]c2ccc(-c3ccc(NCC(C)(C)c4ccc(F)cc4)nn3)cc12` [{6-[3-(ethylamino)(1H-indazol-5-yl)]pyridazin-3-yl}[2-(4-fluorophenyl)-2-methylpropyl]amine], the “Mean AC1.4” value is reported as “A (A=<1 uM)”.
On the same count and under the same terms, next, `CCNc1n[nH]c2ccc(-c3ccc(NCC4(c5ccccn5)CCC4)nn3)cc12` [{6-[3-(ethylamino)(1H-indazol-5-yl)]pyridazin-3-yl}[(2-pyridylcyclobutyl)methyl]amine]: “A (A=<1 uM)”; `CCNc1n[nH]c2ccc(-c3ccc(NCC4(c5ncccc5F)CCC4)nn3)cc12` [{6-[3-(ethylamino)(1H-indazol-5-yl)]pyridazin-3-yl}{[(3-fluoro(2-pyridyl))cyclobutyl]methyl}amine]: “A (A=<1 uM)”.
Still for that read-out and setting: the entry for `CC(C)(CNc1ccc(-c2ccc(CN)nc2)nn1)c1ccc(F)cc1` [{6-[6-(aminomethyl)(3-pyridyl)]pyridazin-3-yl}[2-(4-fluorophenyl)-2-methylpropyl]amine] is “B (B=1-10 uM)”; for `Fc1cccnc1C1(CNc2ccc(-c3cn[nH]c3)nn2)CCC1` [{[(3-fluoro(2-pyridyl))cyclobutyl]methyl}(6-pyrazol-4-ylpyridazin-3-yl)amine] it is “C (C=10-20 uM)”.
For `CC(C)Nc1n[nH]c2ccc(-c3ccc(NCC4(c5ncccc5F)CCC4)nn3)cc12` [{[(3-fluoro(2-pyridyl))cyclobutyl]methyl}(6-{3-[(methylethyl)amino](1H-indazol-5-yl)}pyridazin-3-yl)amine], the “Mean AC1.4” value is “A (A=<1 uM)”.
On the same count and under the same terms, next, `Cn1cc(-c2ccc(NCC3(c4ncccc4F)CCC3)nn2)cn1` [{[(3-fluoro(2-pyridyl))cyclobutyl]methyl}[6-(1-methylpyrazol-4-yl)pyridazin-3-yl]amine]: “D (D=>20 uM)”.

The same test, now with this note: median AC1.4 class, procedure of Example 39.
Take `NCCn1nnc(-c2ccc(NCC3(c4ncccc4F)CCC3)nn2)n1` [{6-[2-(2-aminoethyl)(1,2,3,4-tetraazol-5-yl)]pyridazin-3-yl}{[(3-fluoro(2-pyridyl))cyclobutyl]methyl}amine]: the “Mean AC1.4” value was “D (D=>20 uM)”.
On to `NCc1ccc(F)cc1-c1ccc(NCC2(c3ncccc3F)CCC2)nn1` [{6-[2-(aminomethyl)-5-fluorophenyl]pyridazin-3-yl} {[(3-fluoro(2-pyridyl))cyclobutyl]methyl}amine], for which the “Mean AC1.4” value is reported as “C (C=10-20 uM)”.
As for `NCc1ccccc1-c1ccc(NCC2(c3ncccc3F)CCC2)nn1` [{6-[2-(aminomethyl)phenyl]pyridazin-3-yl}{[(3-fluoro(2-pyridyl))cyclobutyl]methyl}amine], the “Mean AC1.4” value is reported as “D (D=>20 uM)”.
On the same count and under the same terms, the entry for `NCc1ccc(-c2ccc(NCC3(c4ncccc4F)CCC3)nn2)cc1` [{6-[4-(aminomethyl)phenyl]pyridazin-3-yl}{[(3-fluoro(2-pyridyl))cyclobutyl]methyl}amine] is “B (B=1-10 uM)”.
Same read-out and setting: the entry for `NC(c1cnc(-c2ccc(NCC3(c4ncccc4F)CCC3)nn2)s1)C(F)(F)F` (stereo not shown) [{6-[5-(1-amino-2,2,2-trifluoroethyl)(1,3-thiazol-2-yl)]pyridazin-3-yl}{[(3-fluoro(2-pyridyl))cyclobutyl]methyl}amine] is “B (B=1-10 uM)”.
Regarding `NC1(c2cnc(-c3ccc(NCC4(c5ncccc5F)CCC4)nn3)s2)COC1` [{6-[5-(3-aminooxetan-3-yl)(1,3-thiazol-2-yl)]pyridazin-3-yl}{[(3-fluoro(2-pyridyl))cyclobutyl]methyl}amine], the “Mean AC1.4” value is “D (D=>20 uM)”.
Same read-out and setting: next, `NCc1cnc(-c2ccc(NCC3(c4ncccc4F)CCC3)nn2)s1` [{6-[5-(aminomethyl)(1,3-thiazol-2-yl)]pyridazin-3-yl}{[(3-fluoro(2-pyridyl))cyclobutyl]methyl}amine]: “B (B=1-10 uM)”; `CNc1n[nH]c2ccc(-c3ccc(NC[C@]4(c5ncccc5F)C[C@H](F)C4)nn3)cc12` [{[3-fluoro-1-(3-fluoro(2-pyridyl))cyclobutyl]methyl}{6-[3-(methylamino)(1H-indazol-5-yl)]pyridazin-3-yl}amine]: “A (A=<1 uM)”; `Fc1cccnc1C1(CNc2ccc(-c3nccs3)nn2)CCC1` [{[(3-fluoro(2-pyridyl))cyclobutyl]methyl}(6-(1,3-thiazol-2-yl)pyridazin-3-yl)amine]: “B (B=1-10 uM)”.
Still for that read-out and setting: next, `Fc1cccnc1C1(CNc2ccc(-c3nc4cccnc4s3)nn2)CCC1` [{[(3-fluoro(2-pyridyl))cyclobutyl]methyl}(6-(1,3-thiazolino[5,4-b]pyridin-2-yl)pyridazin-3-yl)amine]: “B (B=1-10 uM)”.
Same read-out and setting: next, `Fc1cccnc1C1(CNc2ccc(-c3ccccn3)nn2)CCC1` [{[(3-fluoro(2-pyridyl))cyclobutyl]methyl}(6-(2-pyridyl)pyridazin-3-yl)amine]: “B (B=1-10 uM)”; `Fc1cccnc1C1(CNc2ccc(-c3nc4c(s3)CNC4)nn2)CCC1` [{[(3-fluoro(2-pyridyl))cyclobutyl]methyl}(6-(3-pyrrolino[3,4-d]1,3-thiazol-2-yl)pyridazin-3-yl)amine]: “D (D=>20 uM)”; `Fc1cccnc1C1(CNc2ccc(-c3ccccc3)nn2)CCC1` [{[(3-fluoro(2-pyridyl))cyclobutyl]methyl}(6-phenylpyridazin-3-yl)amine]: “A (A=<1 uM)”.
For `Fc1cccnc1C1(CNc2ccc(-c3cnccn3)nn2)CCC1` [{[(3-fluoro(2-pyridyl))cyclobutyl]methyl}(6-pyrazin-2-ylpyridazin-3-yl)amine], the “Mean AC1.4” value is reported as “B (B=1-10 uM)”.
The same measure, in the same setting: next, `Fc1cccnc1C1(CNc2ccc(-c3ccnnc3)nn2)CCC1` [{[(3-fluoro(2-pyridyl))cyclobutyl]methyl}(6-pyridazin-4-ylpyridazin-3-yl)amine]: “D (D=>20 uM)”; `Fc1cccnc1C1(CNc2ccc(-c3ncccn3)nn2)CCC1` [{[(3-fluoro(2-pyridyl))cyclobutyl]methyl}(6-pyrimidin-2-ylpyridazin-3-yl)amine]: “B (B=1-10 uM)”; `C=Cc1ccc(NCC2(c3ncccc3F)CCC2)nn1` [{[(3-fluoro(2-pyridyl))cyclobutyl]methyl}(6-vinylpyridazin-3-yl)amine]: “D (D=>20 uM)”.
The same measure, in the same setting: next, `Cc1ncccc1-c1ccc(NCC2(c3ncccc3F)CCC2)nn1` [{[(3-fluoro(2-pyridyl))cyclobutyl]methyl}[6-(2-methyl(3-pyridyl))pyridazin-3-yl]amine]: “C (C=10-20 uM)”; `Cc1ncc(-c2ccc(NCC3(c4ncccc4F)CCC3)nn2)cn1` [{[(3-fluoro(2-pyridyl))cyclobutyl]methyl}[6-(2-methylpyrimidin-5-yl)pyridazin-3-yl]amine]: “D (D=>20 uM)”.
The same measure, in the same setting: the entry for `Fc1cccnc1C1(CNc2ccc(-c3cnc(N4CCNCC4)nc3)nn2)CCC1` [{[(3-fluoro(2-pyridyl))cyclobutyl]methyl}[6-(2-piperazinylpyrimidin-5-yl)pyridazin-3-yl]amine] is “D (D=>20 uM)”.

The same test, now with this note: median AC1.4 reported as class; procedure of Example 39.
For `CNC(=O)c1cc(-c2ccc(NC[C@]3(c4ncccc4F)C[C@H](F)C3)nn2)ccc1O` [{5-[6-({[3-fluoro-1-(3-fluoro(2-pyridyl))cyclobutyl]methyl}ami-no)pyridazin-3-yl]-2-hydroxyphenyl}-N-methylcarboxamide], the “Mean AC1.4” value is listed as “B (B=1-10 uM)”.
For the compound `CNC(=O)c1cc2cc(-c3ccc(NC[C@]4(c5ncccc5F)C[C@H](F)C4)nn3)ccc2[nH]1` [{5-[6-({[3-fluoro-1-(3-fluoro(2-pyridyl))cyclobutyl]methyl}ami-no)pyridazin-3-yl]indol-2-yl}-N-methylcarboxamide], the “Mean AC1.4” value is reported as “A (A=<1 uM)”.
On the same count and under the same terms, the entry for `CNC(=O)c1ccc(-c2ccc(NCC3(c4ncccc4F)CCC3)nn2)s1` [{5-[6-({[(3-fluoro(2-pyridyl))cyclobutyl]methyl}ami-no)pyridazin-3-yl](2-thienyl)}-N-methylcarboxamide] is “B (B=1-10 uM)”.
On the same count and under the same terms, the entry for `Fc1cccnc1[C@]1(CNc2ccc(-c3ccc(NC4CC4)nc3)nn2)C[C@@H](F)C1` [{6-[6-(cyclopropylamino)(3-pyridyl)]pyridazin-3-yl}{[3-fluoro-1-(3-fluoro(2-pyridyl))cyclobutyl]methyl}amine] is “D (D=>20 uM)”; for `Nc1ncc(-c2ccc(NC[C@]3(c4ncccc4F)C[C@H](F)C3)nn2)cc1C(F)(F)F` [{6-[6-amino-5-(trifluoromethyl)(3-pyridyl)]pyridazin-3-yl}{[3-fluoro-1-(3-fluoro(2-pyridyl))cyclobutyl]methyl}amine] it is “B (B=1-10 uM)”.
As for `COc1ncc(-c2ccc(NC[C@]3(c4ncccc4F)C[C@H](F)C3)nn2)cc1C` [{[3-fluoro-1-(3-fluoro(2-pyridyl))cyclobutyl]methyl}[6-(6-methoxy-5-methyl(3-pyridyl))pyridazin-3-yl]amine], the “Mean AC1.4” value is on record as “D (D=>20 uM)”.
Same read-out and setting: the entry for `CNc1ccc(-c2ccc(NC[C@]3(c4ncccc4F)C[C@H](F)C3)nn2)cn1` [{[3-fluoro-1-(3-fluoro(2-pyridyl))cyclobutyl]methyl}{6-[6-(methylamino)(3-pyridyl)]pyridazin-3-yl}amine] is “B (B=1-10 uM)”; for `Fc1cccnc1C1(CNc2ccc(-c3nc4c(s3)CNCC4)nn2)CCC1` [{[(3-fluoro(2-pyridyl))cyclobutyl]methyl}(6-(4,5,6,7-tetrahydro-1,3-thiazolo[5,4-c]pyridin-2-yl)pyridazin-3-yl)amine] it is “D (D=>20 uM)”; for `CN1CCN(Cc2cnc(-c3ccc(NCC4(c5ncccc5F)CCC4)nn3)s2)CC1` [{[(3-fluoro(2-pyridyl))cyclobutyl]methyl}(6-{5-[(4-methylpiperazinyl)methyl](1,3-thiazol-2-yl)}pyridazin-3-yl)amine] it is “B (B=1-10 uM)”.
